Source: patent US12617773B2, “Azetidin-3-ylmethanol derivatives as CCR6 receptor modulators” (Idorsia Pharmaceuticals Ltd, priority 2020, dated 2026)
pIC50: −log10 of the molar value.

The compounds below were run against T1, human CCR6 (Homo sapiens, UniProt P51684) (assay: FLIPR assay (inhibition of CCL20-induced calcium signal)). Conditions: HEK-293 cells expressing human CCR6; mean values where determined several times; read-out: FLIPR IC50.
T1 construct: expressed in transfected cells; host or cells: HEK-293
T1 sequence (P51684 1-374): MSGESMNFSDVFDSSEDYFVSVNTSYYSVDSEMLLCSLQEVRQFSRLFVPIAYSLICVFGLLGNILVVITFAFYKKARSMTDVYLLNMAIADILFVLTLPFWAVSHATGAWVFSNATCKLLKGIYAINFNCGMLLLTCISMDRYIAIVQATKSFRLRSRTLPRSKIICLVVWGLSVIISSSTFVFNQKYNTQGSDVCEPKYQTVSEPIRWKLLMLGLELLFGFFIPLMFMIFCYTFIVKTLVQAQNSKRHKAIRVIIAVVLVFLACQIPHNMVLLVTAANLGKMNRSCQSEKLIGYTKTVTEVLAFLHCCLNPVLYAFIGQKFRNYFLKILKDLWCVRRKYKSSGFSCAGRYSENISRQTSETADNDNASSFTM
Type: cell-based
Procedure, shortened: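 Dye-loaded HEK-293 cells expressing human CCR6 were preincubated with compound for 30 min at room temperature in the dark, then challenged with 10 nM CCL20 (final). Fluorescence was tracked on FLIPR, and baseline-subtracted peak emission over base after agonist addition gave inhibition dose-response curves for IC50.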
For CC(C)c1ccc([C@](O)(c2cncc(-c3noc(C4CCN(C(=O)C5CCCC5)CC4)n3)c2)C2(C)CN(C)C2)cc1 [Example 375], the pIC50 was 7.40. Work on CC(C)c1ccc([C@](O)(c2cncc(-c3noc(C4CCN(C(=O)C5CCOCC5)CC4)n3)c2)C2(C)CN(C)C2)cc1 [Example 376] yielded a pIC50 of 6.99. For CC(C)c1ccc([C@](O)(c2cncc(-c3noc(C4CCN(C(=O)c5ccccc5)CC4)n3)c2)C2(C)CN(C)C2)cc1 [Example 377], the pIC50 was 7.40. COC(=O)N1CCC(c2nc(-c3cncc([C@@](O)(c4ccc(C(C)C)cc4)C4(C)CN(C)C4)c3)no2)CC1 [Example 378] was tested, and the pIC50 was 7.26. For CCOC(=O)N1CCC(c2nc(-c3cncc([C@@](O)(c4ccc(C(C)C)cc4)C4(C)CN(C)C4)c3)no2)CC1 [Example 379], the pIC50 was 7.39. COCCOC(=O)N1CCC(c2nc(-c3cncc([C@@](O)(c4ccc(C(C)C)cc4)C4(C)CN(C)C4)c3)no2)CC1 [Example 380] was tested, and the pIC50 was 7.15. CC(C)c1ccc([C@](O)(c2cncc(-c3noc(C4CCN(S(C)(=O)=O)CC4)n3)c2)C2(C)CN(C)C2)cc1 [Example 381] gave a pIC50 of 7.27. Work on CC(C)c1ccc([C@](O)(c2cncc(-c3noc(C4CCN(S(=O)(=O)C(C)C)CC4)n3)c2)C2(C)CN(C)C2)cc1 [Example 382] yielded a pIC50 of 7.36. With CCCS(=O)(=O)N1CCC(c2nc(-c3cncc([C@@](O)(c4ccc(C(C)C)cc4)C4(C)CN(C)C4)c3)no2)CC1 [Example 383] the pIC50 was 7.27. Work on COCCS(=O)(=O)N1CCC(c2nc(-c3cncc([C@@](O)(c4ccc(C(C)C)cc4)C4(C)CN(C)C4)c3)no2)CC1 [Example 384] yielded a pIC50 of 7.38. CC(C)c1ccc([C@](O)(c2cncc(-c3noc(C4CCN(S(=O)(=O)CCO)CC4)n3)c2)C2(C)CN(C)C2)cc1 [Example 385] gave a pIC50 of 6.93. In the case of CC(C)c1ccc([C@](O)(c2cncc(-c3noc(C4CCN(S(=O)(=O)C5CCCC5)CC4)n3)c2)C2(C)CN(C)C2)cc1 [Example 386], the pIC50 was 7.39. CC(C)c1ccc([C@](O)(c2cncc(-c3noc(C4CCN(S(=O)(=O)C5CCOCC5)CC4)n3)c2)C2(C)CN(C)C2)cc1 [Example 387] gave a pIC50 of 7.26. With CNS(=O)(=O)N1CCC(c2nc(-c3cncc([C@@](O)(c4ccc(C(C)C)cc4)C4(C)CN(C)C4)c3)no2)CC1 [Example 388] the pIC50 was 7.55. CNC1(c2nc(-c3cncc([C@@](O)(c4ccc(C(C)C)cc4)C4(C)CN(C)C4)c3)no2)CC1 [Example 389, (R)-(1,3-Dimethyl-azetidin-3-yl)-(4-isopropyl-phenyl)-{5-[5-(1-methylamino-cyclopropyl)-[1,2,4]oxadiazol-3-yl]-pyridin-3-yl}-methanol] gave a pIC50 of 7.24. Compound CCOC(=O)N(C)C1(c2nc(-c3cncc([C@@](O)(c4ccc(C(C)C)cc4)C4(C)CN(C)C4)c3)no2)CC1 [Example 390] has a pIC50 of 6.76. CC(C)c1ccc([C@](O)(c2cncc(-c3noc(C4(N(C)S(C)(=O)=O)CC4)n3)c2)C2(C)CN(C)C2)cc1 [Example 391] showed a pIC50 of 7.23. Work on CC(C)c1ccc([C@](O)(c2cnnc(OC3CCCC3(C)C)c2)C2(C)CN(C)C2)cc1 (stereo partly drawn) [Example 392, (R)-(1,3-Dimethyl-azetidin-3-yl)-[6-(2,2-dimethyl-cyclopentyloxy)-pyridazin-4-yl]-(4-isopropyl-phenyl)-methanol] yielded a pIC50 of 7.62. With CC(C)c1ccc([C@](O)(c2cnnc(OC3CCC(F)(F)C3)c2)C2(C)CN(C)C2)cc1 (stereo partly drawn) [Example 393, (R)-[6-(3,3-Difluoro-cyclopentyloxy)-pyridazin-4-yl]-(1,3-dimethyl-azetidin-3-yl)-(4-isopropyl-phenyl)-methanol] the pIC50 was 7.60. CC(C)c1ccc([C@](O)(c2cnnc(Oc3ccccc3CCO)c2)C2(C)CN(C)C2)cc1 [Example 394, 2-(2-{5-[(R)-(1,3-Dimethyl-azetidin-3-yl)-hydroxy-(4-isopropyl-phenyl)-methyl]-pyridazin-3-yloxy}-phenyl)-ethanol] showed a pIC50 of 5.98. For CC(C)c1ccc([C@](O)(c2cnnc(Oc3ccc(CCO)cc3)c2)C2(C)CN(C)C2)cc1 [Example 395], the pIC50 was 7.22. With CC(C)c1ccc([C@](O)(c2cnnc(Oc3ccc4c(c3)CCCO4)c2)C2(C)CN(C)C2)cc1 [Example 396] the pIC50 was 7.46. Work on CC(C)c1ccc([C@](O)(c2cnnc(Oc3ccc4[nH]c(=O)oc4c3)c2)C2(C)CN(C)C2)cc1 [Example 397] yielded a pIC50 of 7.54. CCC(O)(C#Cc1cncc([C@@](O)(c2ccc(C(C)C)cc2)C2(C)CN(C)C2)c1)c1cc(C)ncn1 (stereo partly shown) [Example 398] showed a pIC50 of 7.29. Cc1cc([C@@](C)(O)C#Cc2cncc([C@@](O)(c3ccc(C(C)C)cc3)C3(C)CN(C)C3)c2)ncn1 [Example 399] gave a pIC50 of 6.97. Compound Cc1cc([C@](C)(O)C#Cc2cncc([C@@](O)(c3ccc(C(C)C)cc3)C3(C)CN(C)C3)c2)ncn1 [Example 400] has a pIC50 of 6.80. CC(C)c1ccc([C@](O)(c2cncc(C#CC3(c4ccc(F)cc4)CC3)c2)C2(C)CN(C)C2)cc1 [Example 403] was tested, and the pIC50 was 7.39. CC(C)c1ccc([C@](O)(c2cncc(C#CC3(O)CCN(C(=O)OC(C)(C)C)C3)c2)C2(C)CN(C)C2)cc1 (stereo partly shown) [Example 406] showed a pIC50 of 7.42. Compound CC(C)c1ccc([C@](O)(c2cncc(C#CC3CCN(C(=O)OC(C)(C)C)CC3)c2)C2(C)CN(C)C2)cc1 [Example 407] has a pIC50 of 7.29. Compound CCC(O)(CCc1cncc([C@@](O)(c2ccc(C(C)C)cc2)C2(C)CN(C)C2)c1)c1cc(C)ncn1 (stereo partly drawn) [Example 408, 1-{5-[(R)-(1,3-Dimethyl-azetidin-3-yl)-hydroxy-(4-isopropyl-phenyl)-methyl]-pyridin-3-yl}-3-(6-methyl-pyrimidin-4-yl)-pentan-3-ol] has a pIC50 of 6.86. With COC(=O)c1ccccc1CCc1cncc([C@@](O)(c2ccc(C(C)C)cc2)C2(C)CN(C)C2)c1 [Example 409] the pIC50 was 7.31. CC(C)c1ccc([C@](O)(c2cncc(CCc3ccccc3CO)c2)C2(C)CN(C)C2)cc1 [Example 410] gave a pIC50 of 7.07. COc1cc(C(C)(O)CCc2cncc([C@@](O)(c3ccc(C(C)C)cc3)C3(C)CN(C)C3)c2)ncn1 (stereo partly shown) [Example 411] gave a pIC50 of 7.06. Compound CC(C)c1ccc([C@](O)(c2cncc(CCC3(O)CCN(C(=O)OC(C)(C)C)C3)c2)C2(C)CN(C)C2)cc1 (stereo partly shown) [Example 412] has a pIC50 of 7.05. For CC(C)c1ccc([C@](O)(c2cncc(CCc3cc4cccnc4[nH]3)c2)C2(C)CN(C)C2)cc1 [Example 413, (R)-(1,3-Dimethyl-azetidin-3-yl)-(4-isopropyl-phenyl)-{5-[2-(1H-pyrrolo[2,3-b]pyridin-2-yl)-ethyl]-pyridin-3-yl}-methanol], the pIC50 was 7.44. For CC(C)c1ccc([C@](O)(c2cncc(CCC3CCN(C(=O)OC(C)(C)C)CC3)c2)C2(C)CN(C)C2)cc1 [Example 414, 4-(2-{5-[(R)-(1,3-Dimethyl-azetidin-3-yl)-hydroxy-(4-isopropyl-phenyl)-methyl]-pyridin-3-yl}-ethyl)-piperidine-1-carboxylic acid tert-butyl ester], the pIC50 was 7.46. Compound CC(C)c1ccc([C@](O)(c2cncc(CCC(C)(O)c3ccccn3)c2)C2(C)CN(C)C2)cc1 (stereo partly shown) [Example 415] has a pIC50 of 7.21. With CC(C)c1ccc([C@](O)(c2cncc(CCC(O)(c3ccccn3)C3CC3)c2)C2(C)CN(C)C2)cc1 (stereo partly shown) [Example 416] the pIC50 was 7.83. Compound Cc1cncc(C(C)(O)CCc2cncc([C@@](O)(c3ccc(C(C)C)cc3)C3(C)CN(C)C3)c2)c1 (stereo partly shown) [Example 417] has a pIC50 of 6.93. CC(C)c1ccc([C@](O)(c2cnnc(CCC3(O)CCCc4cccnc43)c2)C2(C)CN(C)C2)cc1 (stereo partly drawn) [Example 418, 8-(2-{5-[(R)-(1,3-Dimethyl-azetidin-3-yl)-hydroxy-(4-isopropyl-phenyl)-methyl]-pyridazin-3-yl}-ethyl)-5,6,7,8-tetrahydro-quinolin-8-ol] showed a pIC50 of 6.72. In the case of COc1cccc(C(C)(O)CCc2cc([C@@](O)(c3ccc(C(C)C)cc3)C3(C)CN(C)C3)cnn2)n1 (stereo partly drawn) [Example 419, 4-{5-[(R)-(1,3-Dimethyl-azetidin-3-yl)-hydroxy-(4-isopropyl-phenyl)-methyl]-pyridazin-3-yl}-2-(6-methoxy-pyridin-2-yl)-butan-2-ol], the pIC50 was 6.81. Work on Cc1cccc(C(C)(O)CCc2cc([C@@](O)(c3ccc(C(C)C)cc3)C3(C)CN(C)C3)cnn2)n1 (stereo partly drawn) [Example 420, 4-{5-[(R)-(1,3-Dimethyl-azetidin-3-yl)-hydroxy-(4-isopropyl-phenyl)-methyl]-pyridazin-3-yl}-2-(6-methyl-pyridin-2-yl)-butan-2-ol] yielded a pIC50 of 6.56. In the case of CC(C)c1ccc(C(O)(c2cccc(N3CCCC3)n2)C2(C)CN(C)C2)cc1 (stereo not shown) [Example 421, (1,3-Dimethyl-azetidin-3-yl)-(4-isopropyl-phenyl)-(6-pyrrolidin-1-yl-pyridin-2-yl)-methanol], the pIC50 was 6.15. CC(=O)N1CCC(F)(c2nc(-c3cncc([C@@](O)(c4ccc(C(C)C)cc4)C4(C)CN(C)C4)c3)no2)CC1 [Example 422] was tested, and the pIC50 was 7.18. Work on CC(=O)N1CCC(C)(c2nc(-c3cncc([C@@](O)(c4ccc(C(C)C)cc4)C4(C)CN(C)C4)c3)no2)CC1 [Example 423] yielded a pIC50 of 7.21. With CC(C)c1ccc([C@](O)(c2cncc(OC3CCC(=O)CC3)c2)C2(C)CN(C)C2)cc1 [Example 424, 4-{5-[(R)-(1,3-Dimethyl-azetidin-3-yl)-hydroxy-(4-isopropyl-phenyl)-methyl]-pyridin-3-yloxy}-cyclohexanone] the pIC50 was 6.97.
